Values quoted from earlier work as cited in paper PMC4785407, “Reduction Impairs the Antibacterial Activity but Benefits the LPS Neutralization Ability of Human Enteric Defensin 5” (Scientific Reports, 2016).
Bridge positions count the residues as written; N and C are the ends. Peptide text beside a SMILES is read from it.

Test system: bacteria
Conditions: among the α defensins; cited from earlier work
Text: Oxidized human defensin 5 (HD5OX), a 32-residue α defensin, is stored in the secretory granules of Paneth cells in the small intestine as a propeptide (E20-R94) and is processed by anionic and/or meso isoforms of trypsin during secretion or shortly thereafter at a cleavage site between R62 and A63[6]. […] We have previously prepared bioactive HD5OX using Pichia pastoris and design ... || HD5OX is an endogenous bactericidal agent.

CC[C@H](C)[C@@H]1NC(=O)[C@H](CCC(=O)O)NC(=O)[C@@H]2CSSC[C@@H]3NC(=O)[C@H](Cc4ccc(O)cc4)NC(=O)[C@@H](NC(=O)[C@@H](NC(=O)[C@H](C)N)[C@@H](C)O)CSSC[C@@H](C(=O)N[C@@H](CCCNC(=N)N)C(=O)O)NC(=O)[C@H](CSSC[C@H](NC(=O)[C@H](CCCNC(=N)N)NC(=O)CNC(=O)[C@H]([C@@H](C)O)NC(=O)[C@H](CCCNC(=N)N)NC3=O)C(=O)N[C@@H](C)C(=O)N[C@@H]([C@@H](C)O)C(=O)N[C@@H](CCCNC(=N)N)C(=O)N[C@@H](CCC(=O)O)C(=O)N[C@@H](CO)C(=O)N[C@@H](CC(C)C)C(=O)N[C@@H](CO)C(=O)NCC(=O)N[C@@H](C(C)C)C(=O)N2)NC(=O)[C@H](CC(C)C)NC(=O)[C@H](CCCNC(=N)N)NC(=O)[C@H](Cc2ccc(O)cc2)NC(=O)[C@H](CC(C)C)NC(=O)[C@H](CCCNC(=N)N)NC(=O)CNC(=O)[C@H](CO)NC1=O [HD5OX, Oxidized human defensin 5] (H-ATCYCRTGRCATRESLSGVCEISGRLYRLCCR-OH; disulfide 3-31, 5-20, 10-30; N-terminus and C-terminus assumed)
antibacterial activity: widest spectrum of antibacterial activity among the α defensins
